From US12581252B2, “Substituted pyrrolo[3,4-b]pyridines as PI3K-α inhibitors” (Relay Therapeutics, Inc., priority 2020, dated 2026)

These molecules were tested against H1047R PIK3CA enzyme (Homo sapiens, UniProt P42336, H1047R) (assay: ADP-Glo Biochemical PIK3CA Kinase Assay).
Sequence of H1047R PIK3CA enzyme (P42336 whole entry H1047R): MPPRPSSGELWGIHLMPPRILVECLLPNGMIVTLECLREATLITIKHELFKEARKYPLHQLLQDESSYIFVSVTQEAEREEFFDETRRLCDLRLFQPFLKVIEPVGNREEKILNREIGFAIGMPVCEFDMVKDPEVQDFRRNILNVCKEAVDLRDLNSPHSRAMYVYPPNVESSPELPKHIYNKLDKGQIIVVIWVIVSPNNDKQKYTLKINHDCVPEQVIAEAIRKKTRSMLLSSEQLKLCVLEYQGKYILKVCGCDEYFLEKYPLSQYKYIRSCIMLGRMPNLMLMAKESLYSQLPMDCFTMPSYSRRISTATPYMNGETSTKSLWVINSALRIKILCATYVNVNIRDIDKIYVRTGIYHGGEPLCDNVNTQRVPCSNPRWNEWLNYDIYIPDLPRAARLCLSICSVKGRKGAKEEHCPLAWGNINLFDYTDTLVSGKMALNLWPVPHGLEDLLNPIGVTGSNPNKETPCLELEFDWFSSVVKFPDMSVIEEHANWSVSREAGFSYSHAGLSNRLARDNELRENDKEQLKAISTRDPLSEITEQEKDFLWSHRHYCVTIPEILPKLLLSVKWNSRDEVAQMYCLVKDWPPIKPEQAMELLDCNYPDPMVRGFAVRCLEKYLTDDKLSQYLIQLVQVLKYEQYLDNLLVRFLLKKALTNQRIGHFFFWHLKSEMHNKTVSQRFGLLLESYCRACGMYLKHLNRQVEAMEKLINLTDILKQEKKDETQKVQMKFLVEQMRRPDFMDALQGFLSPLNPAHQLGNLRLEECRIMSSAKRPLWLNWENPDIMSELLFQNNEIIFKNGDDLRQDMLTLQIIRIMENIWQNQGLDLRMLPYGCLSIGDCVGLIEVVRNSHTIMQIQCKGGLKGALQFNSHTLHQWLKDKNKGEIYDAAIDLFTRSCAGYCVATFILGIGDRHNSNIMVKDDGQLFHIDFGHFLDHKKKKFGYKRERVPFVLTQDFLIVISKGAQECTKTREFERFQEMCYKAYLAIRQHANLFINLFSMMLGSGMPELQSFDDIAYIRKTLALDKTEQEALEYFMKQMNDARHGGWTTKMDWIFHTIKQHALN
Sequence of H1047R PIK3CA enzyme (P27986 whole entry partner): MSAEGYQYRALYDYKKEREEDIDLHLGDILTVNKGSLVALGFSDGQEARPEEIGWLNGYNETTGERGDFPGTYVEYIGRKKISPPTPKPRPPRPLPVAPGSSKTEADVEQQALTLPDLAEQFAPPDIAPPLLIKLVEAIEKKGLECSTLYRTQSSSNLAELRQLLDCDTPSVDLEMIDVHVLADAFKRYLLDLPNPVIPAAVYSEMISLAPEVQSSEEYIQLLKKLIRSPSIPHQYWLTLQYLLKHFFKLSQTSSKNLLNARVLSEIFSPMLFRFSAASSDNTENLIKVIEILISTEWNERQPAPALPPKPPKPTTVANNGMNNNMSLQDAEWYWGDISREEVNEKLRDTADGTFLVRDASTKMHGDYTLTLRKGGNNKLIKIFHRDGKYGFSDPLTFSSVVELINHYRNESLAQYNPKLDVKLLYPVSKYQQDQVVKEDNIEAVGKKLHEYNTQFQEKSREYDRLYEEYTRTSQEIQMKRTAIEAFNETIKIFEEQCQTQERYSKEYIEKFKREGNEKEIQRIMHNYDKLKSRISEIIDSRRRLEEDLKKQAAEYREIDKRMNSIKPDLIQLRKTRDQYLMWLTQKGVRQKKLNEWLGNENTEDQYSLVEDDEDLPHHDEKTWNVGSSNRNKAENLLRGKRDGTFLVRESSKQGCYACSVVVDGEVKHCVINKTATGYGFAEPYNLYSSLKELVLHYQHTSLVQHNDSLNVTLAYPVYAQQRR

| SMILES | IC50 |
| --- | --- |
| N#CCc1cc(NC(=O)N2C[C@@](O)(C(F)F)c3cc(F)ccc32)c2c(c1)C(=O)N[C@H]2c1cc(F)ccc1Cl (single isomer, unassigned) [Compound I-2599] | 100 to 500 nM |
| O=C1N[C@H](c2cc(F)ccc2Cl)c2c(NC(=O)N3C[C@H](O)c4cc(F)ccc43)cc(-n3ccccc3=O)cc21 (single isomer, unassigned) [Compound I-2353] | 1000 to 10000 nM |
| Cc1ccccc1C1NC(=O)c2cccc(NC(=O)c3c[nH]c(=O)c(Br)c3C)c21 (stereo not shown) [Compound I-504] | 10000 to 100000 nM |
| CN(C)c1ncc(-c2cc(NC(=O)c3cc(F)cc(C(F)(F)F)c3)c3c(c2)C(=O)NC3c2cc(F)ccc2Cl)cn1 (stereo not shown) [Compound I-1222] | ≤ 100 nM |
| O=C1N[C@H](c2cc(F)ccc2Cl)c2c(NC(=O)N3C[C@](O)(C(F)(F)F)c4cc(F)ccc43)ccc(-n3nccn3)c21 (single isomer, unassigned) [Compound I-2526] | 1000 to 10000 nM |
| Cc1ccccc1[C@@H]1NC(=O)c2nccc(NC(=O)N3C[C@H](C)c4ccccc43)c21 (single isomer, unassigned) [Compound I-302] | 500 to 1000 nM |
| O=C(Nc1cc(-c2cnn(-c3ccncn3)c2)cc2c1C(c1cc(F)ccc1Cl)NC2=O)c1cc(F)cc(C(F)(F)F)c1 (stereo not shown) [Compound I-1465] | ≤ 100 nM |
| N#Cc1cnn(-c2cc(NC(=O)N3C[C@H](O)c4cc(F)ccc43)c3c(c2)C(=O)N[C@H]3c2cc(F)ccc2Cl)c1 [Compound I-2403] | ≤ 100 nM |
| O=C(Nc1cc(C2CCCN2)cc2c1C(c1cc(F)ccc1Cl)NC2=O)c1cc(F)cc(C(F)(F)F)c1 (stereo not shown) [Compound I-1218] | ≤ 100 nM |
| O=C(Nc1cc(Br)cc2c1C(c1cc(F)ccc1Cl)NC2=O)c1cc(F)cc(CC(F)F)c1 (stereo not shown) [Compound I-1745] | 1000 to 10000 nM |
| O=C1NC(c2cc(F)ccc2Cl)c2c(NC(=O)C3CCCC(C(F)(F)F)C3)cc(Br)cc21 (mixture of isomers) [Compound I-1323] | 100 to 500 nM |
| O=C(Nc1cc(Br)cc2c1C(c1c(F)cccc1Cl)NC2=O)c1cc(F)cc(C(F)(F)F)c1 (stereo not shown) [Compound I-681] | 1000 to 10000 nM |
| CC(C)(C)C(=O)Nc1cc(Br)cc2c1C(c1cc(F)ccc1Cl)NC2=O (stereo not shown) [Compound I-1139] | 1000 to 10000 nM |
| Cc1ccccc1C1NC(=O)c2cccc(NC(=O)N3CC(=O)Nc4ccccc43)c21 (stereo not shown) [Compound I-44] | 10000 to 100000 nM |
| O=C1NC(c2cc(F)ccc2Cl)c2c(NC(=O)N3CCc4c3cccc4C(F)(F)F)cccc21 (stereo not shown) [Compound I-2498] | 1000 to 10000 nM |
| COc1ncc2c(c1NC(=O)c1cc(F)cc(C(F)(F)F)c1)C(c1ccccc1Cl)NC2=O (stereo not shown) [Compound I-335, N-(1-(2-chlorophenyl)-6-methoxy-3-oxo-2,3-dihydro-1H-pyrrolo[3,4-c]pyridin-7-yl)-3-fluoro-5-(trifluoromethyl)benzamide] | 10000 to 100000 nM |
| Cc1ccccc1C1NC(=O)c2c(C(=O)N3CC(C#N)C3)ccc(NC(=O)c3nsc4ccccc34)c21 (stereo not shown) [Compound I-219] | 500 to 1000 nM |
| N#Cc1cc(-c2cc(NC(=O)c3cc(F)cc(C(F)(F)F)c3)c3c(c2)C(=O)NC3c2cc(F)ccc2Cl)cn2ncnc12 (stereo not shown) [Compound I-1822] | ≤ 100 nM |
| O=C(Nc1cc(NCC2(O)CC2)cc2c1C(c1cc(F)ccc1Cl)NC2=O)c1cc(F)cc(C(F)(F)F)c1 (stereo not shown) [Compound I-1181] | ≤ 100 nM |
| N#Cc1cc2ncnn2cc1-c1cc(NC(=O)c2cc(F)cc(C(F)(F)F)c2)c2c(c1)C(=O)NC2c1cc(F)ccc1Cl (stereo not shown) [Compound I-1539] | ≤ 100 nM |
| O=C(O)Cc1cc(NC(=O)c2cc(F)cc(C(F)(F)F)c2)c2c(c1)C(=O)NC2c1cc(F)ccc1Cl (stereo not shown) [Compound I-399] | ≤ 100 nM |

| SMILES | IC50 |
| --- | --- |
| O=C(Nc1cc(-n2ccnc2)cc2c1[C@H](c1cc(F)ccc1Cl)NC2=O)c1cc(F)cc(C(F)(F)F)c1 (stereo in doubt) [Compound I-1126] | ≤ 100 nM |
| C[C@@H](C#N)Oc1cc(NC(=O)c2cc(F)cc(C(F)(F)F)c2)c2c(c1)C(=O)N[C@@H]2c1cc(F)ccc1Cl (single isomer, unassigned) [Compound I-2007] | 1000 to 10000 nM |
| COc1ccc2c(c1)N(C(=O)Nc1cccc3c1C(c1cc(F)ccc1Cl)NC3=O)CC2 (stereo not shown) [Compound I-2439] | 1000 to 10000 nM |
| O=C1NC(c2cc(F)c(F)cc2Cl)c2c(NC(=O)c3nsc4ccccc34)cccc21 (stereo not shown) [Compound I-159] | ≤ 100 nM |
| Cc1ccccc1C1NC(=O)Oc2cccc(NC(=O)c3csc4ccccc34)c21 (stereo not shown) [Compound I-294] | 100 to 500 nM |
| Cc1ncc(C#N)c(-c2cc(NC(=O)c3cc(F)cc(C(F)(F)F)c3)c3c(c2)C(=O)NC3c2cc(F)ccc2Cl)n1 (stereo not shown) [Compound I-1369] | ≤ 100 nM |
| N#CC(C(=O)Nc1cc(-c2ccc3ncnn3c2)cc2c1C(c1cc(F)ccc1Cl)NC2=O)c1ccccc1 (stereo not shown) [Compound I-1834] | 1000 to 10000 nM |
| O=C(Nc1cccc2c1C(C1CCCC(O)C1)NC2=O)c1cc(F)cc(C(F)(F)F)c1 (mixture of isomers) [Compound I-2226] | 10000 to 100000 nM |
| O=C1NC(c2cc(F)ccc2Cl)c2c(NC(=O)N3CCC4(C3)CC4(F)F)cc(-c3ccc4ncnn4c3)cc21 (stereo not shown) [Compound I-1722] | 1000 to 10000 nM |
| N#Cc1cnn(Cc2cc(NC(=O)N3C[C@](O)(C(F)(F)F)c4cc(F)ccc43)c3c(c2)C(=O)N[C@H]3c2cc(F)ccc2Cl)c1 (single isomer, unassigned) [Compound I-2671] | 500 to 1000 nM |
| O=CNc1nc(-c2cc(NC(=O)c3cc(F)cc(C(F)(F)F)c3)c3c(c2)C(=O)NC3c2cc(F)ccc2Cl)ccc1O (stereo not shown) [Compound I-1552] | ≤ 100 nM |
| O=C1NC(c2cc(F)ccc2Cl)c2c(NC(=O)C3CNCCO3)cc(-c3ccc4ncnn4c3)cc21 (stereo not shown) [Compound I-1900] | 10000 to 100000 nM |
| CC(C)n1cc(-c2cc(NC(=O)c3cc(F)cc(C(F)(F)F)c3)c3c(n2)C(=O)N[C@@H]3c2cc(F)ccc2Cl)ccc1=O [Compound I-650] | 500 to 1000 nM |
| O=C1N[C@H](c2cc(F)ccc2Cl)c2c(NC(=O)N3C[C@H](O)c4ccccc43)cc(-c3ccc4ncnn4c3)cc21 (single isomer, unassigned) [Compound I-1578] | 10000 to 100000 nM |
| O=C1N[C@H](c2cc(F)ccc2Cl)c2c(NC(=O)N3C[C@H](O)C[C@@H](C(F)(F)F)C3)cccc21 (single isomer, unassigned) [Compound I-2236] | 10000 to 100000 nM |
| Cn1cnc2ccc(-c3cc(NC(=O)c4cc(F)cc(C(F)(F)F)c4)c4c(c3)C(=O)NC4c3cc(F)ccc3Cl)cc21 (stereo not shown) [Compound I-1027] | ≤ 100 nM |
| O=C(Nc1cc(N2CCc3cnccc32)cc2c1C(c1cc(F)ccc1Cl)NC2=O)c1cc(F)cc(C(F)(F)F)c1 (stereo not shown) [Compound I-1261] | ≤ 100 nM |
| CNc1cc(C(F)(F)F)cc(C(=O)Nc2cccc3c2C(c2cc(F)ccc2Cl)NC3=O)n1 (stereo not shown) [Compound I-839] | 10000 to 100000 nM |
| CC(C)(O)c1cc(NC(=O)c2cc(F)cc(Cl)c2)c2c(c1)C(=O)NC2c1cc(F)ccc1Cl (stereo not shown) [Compound I-214] | ≤ 100 nM |
| O=C(Nc1cc(-c2ccc3ncnn3c2)cc2c1C(c1cc(F)ccc1Cl)NC2=O)c1cc2ccccc2[nH]1 (stereo not shown) [Compound I-1609] | 1000 to 10000 nM |
| O=C(Nc1cc(-n2ccnc2)cc2c1[C@@H](c1cc(F)ccc1Cl)NC2=O)c1cc(F)cc(C(F)(F)F)c1 (stereo in doubt) [Compound I-1125] | 100 to 500 nM |

| SMILES | IC50 |
| --- | --- |
| N#CC1(CNc2cc(NC(=O)c3cc(F)cc(C(F)(F)F)c3)c3c(c2)C(=O)NC3c2cc(F)ccc2Cl)CC1 (stereo not shown) [Compound I-695] | ≤ 100 nM |
| O=C1N[C@@H](c2cc(F)ccc2Cl)c2c(NC(=O)N3C[C@](O)(C(F)(F)F)c4cc(F)ccc43)cc(-n3ncccc3=O)cc21 (single isomer, unassigned) [Compound I-2533] | 1000 to 10000 nM |
| C[S@](=O)(Cc1cc(NC(=O)c2cc(F)cc(C(F)(F)F)c2)c2c(c1)C(=O)N[C@@H]2c1cc(F)ccc1Cl)=NC#N (single isomer, unassigned) [Compound I-1561] | 100 to 500 nM |
| O=C1N[C@@H](c2ccccc2Cl)c2c(NC(=O)N3C[C@@](O)(C(F)(F)F)c4cc(F)ccc43)cccc21 (single isomer, unassigned) [Compound I-2685] | 10000 to 100000 nM |
| Cc1ccccc1C1NC(=O)c2cc(C(C)C)cc(NC(=O)c3cc(F)cc(C(F)(F)F)c3)c21 (stereo not shown) [Compound I-266, 3-Fluoro-N-[3-(2-methylphenyl)-6-(isopropyl)-1-oxo-2,3-dihydro-1H-isoindol-4-yl]-5-(trifluoromethyl)benzamide] | 100 to 500 nM |
| CC(C)Cc1cc(NC(=O)c2cc(F)cc(C(F)(F)F)c2)c2c(c1)C(=O)NC2c1cc(F)ccc1Cl (stereo not shown) [Compound I-293] | ≤ 100 nM |
| Cc1ccccc1-n1[nH]c(=O)c2cccc(NC(=O)c3nsc4ccccc34)c21 [Compound I-117] | 1000 to 10000 nM |
| O=C(Nc1cc(Br)cc2c1[C@@H](c1cccc(F)c1Cl)NC2=O)c1cc(F)cc(C(F)(F)F)c1 [Compound I-667] | 1000 to 10000 nM |
| O=C(Nc1cccc2c1C(c1cc(F)c(F)cc1C(F)F)NC2=O)c1cc(F)cc(Cl)c1 (stereo not shown) [Compound I-331] | 100 to 500 nM |
| O=C1CCC(c2cc(NC(=O)c3cc(F)cc(C(F)(F)F)c3)c3c(c2)C(=O)NC3c2cc(F)ccc2Cl)N1 (stereo not shown) [Compound I-861] | ≤ 100 nM |
| Cn1nccc1Nc1cc(NC(=O)c2cc(F)cc(C(F)(F)F)c2)c2c(c1)C(=O)N[C@H]2c1cc(F)ccc1Cl [Compound I-1144] | ≤ 100 nM |
| N#CCc1cc(NC(=O)N2C[C@](O)(C(F)F)c3cc(F)ccc32)c2c(c1)C(=O)N[C@@H]2c1cc(F)ccc1Cl (single isomer, unassigned) [Compound I-2598] | 1000 to 10000 nM |
| O=C1NC(c2cc(F)ccc2Cl)c2c(Nc3ccn(C4CC4)n3)cc(-c3ccc4ncnn4c3)cc21 (stereo not shown) [Compound I-1993] | 10000 to 100000 nM |
| NC(=O)c1cc(-c2ccc3ncnn3c2)cc2c1C(c1cc(F)ccc1Cl)NC2=O (stereo not shown) [Compound I-1774] | 1000 to 10000 nM |
| O=C1NC(c2c(F)cccc2F)c2c(NC(=O)c3nsc4ccccc34)cccc21 (stereo not shown) [Compound I-84] | 1000 to 10000 nM |
| O=C(Nc1cc(C2CS(=O)(=O)C2)cc2c1C(c1cc(F)ccc1Cl)NC2=O)c1cc(F)cc(C(F)(F)F)c1 (stereo not shown) [Compound I-1196] | ≤ 100 nM |
| O=C1NC(c2cc(F)ccc2Cl)c2c1cccc2-n1cnc2ccccc2c1=O (stereo not shown) [Compound I-1516] | 10000 to 100000 nM |
| O=C1NC(c2cc(F)ccc2Cl)c2c(Nc3cc4ccccc4cn3)cc(Br)cc21 (stereo not shown) [Compound I-1683] | 10000 to 100000 nM |
| O=C(Nc1cc(Br)cc2c1C(c1cc(F)ccc1Cl)NC2=O)c1cccc(C(F)(F)F)c1 (stereo not shown) [Compound I-801] | 100 to 500 nM |
